In PubChem BioAssay (NCI):
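Tested at 5 concentrations; 48 h exposure; 96-well plates; endpoints linearly interpolated, else capped at highest concentration. GI50 = concentration required for 50% inhibition of growth. TGI marks complete inhibition of growth.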

What was measured:
Assay in all cases: DTP human tumour cell line panel, 48 h
MALME-3M melanoma = system: MALME-3M melanoma
U251 CNS = system: U251 CNS
OVCAR-5 ovarian = system: OVCAR-5 ovarian
NCI-H226 lung = system: NCI-H226 lung
HCT-15 colon = system: HCT-15 colon
ACHN renal = system: ACHN renal
SK-MEL-5 melanoma = system: SK-MEL-5 melanoma
786-0 renal = system: 786-0 renal
NCI/ADR-RES ovarian = system: NCI/ADR-RES ovarian
LOX IMVI melanoma = system: LOX IMVI melanoma

Row | SMILES | TGI (MALME-3M melanoma) | TGI (U251 CNS) | TGI (OVCAR-5 ovarian) | TGI (NCI-H226 lung) | TGI (HCT-15 colon) | TGI (ACHN renal) | TGI (SK-MEL-5 melanoma) | TGI (786-0 renal) | GI50 (U251 CNS) | GI50 (OVCAR-5 ovarian) | GI50 (NCI/ADR-RES ovarian) | TGI (NCI/ADR-RES ovarian) | GI50 (NCI-H226 lung) | GI50 (HCT-15 colon) | GI50 (ACHN renal) | GI50 (LOX IMVI melanoma) | TGI (LOX IMVI melanoma) | GI50 (SK-MEL-5 melanoma) | GI50 (786-0 renal) | GI50 (MALME-3M melanoma)
1 | COc1cccc(N2C(=O)/C(=C/c3ccc(N(CCC#N)CCC#N)cc3)N=C2c2cc([N+](=O)[O-])ccc2Cl)c1 | > 100 µM | > 100 µM | > 100 µM | > 100 µM | > 100 µM | > 100 µM | > 100 µM | > 100 µM | – | – | – | – | – | – | – | – | – | – | – | –
2 | CS(=O)(=O)O[C@H]1C(=O)N(c2cc3c4ccccc4ccc3c3ccccc23)[C@@H]1c1ccccn1 | – | > 100 µM | > 100 µM | > 100 µM | > 100 µM | > 100 µM | 3.35 µM | 31.7 µM | 0.685 µM | 0.711 µM | 0.523 µM | > 100 µM | 5.36 µM | 0.419 µM | 0.877 µM | 0.588 µM | > 100 µM | 0.3 µM | 0.348 µM | –
3 | CC12CC/C(=N/NC(N)=O)C3C1CCCC32 | > 100 µM | > 100 µM | – | > 100 µM | > 100 µM | > 100 µM | > 100 µM | > 100 µM | – | – | – | – | – | – | – | – | > 100 µM | – | – | –
4 | Cc1ccc(C(=O)C(c2nc3n(c2O)C(=N)N=N3)c2nc3n(c2O)C(=N)N=N3)cc1 (stereo not drawn) | > 100 µM | – | > 100 µM | > 100 µM | > 100 µM | > 100 µM | > 100 µM | > 100 µM | – | – | – | – | – | – | – | – | > 100 µM | – | – | –
5 | O=c1c2ccccc2nc2n1CCc1c-2[nH]c2cc3c(cc12)OCO3 | – | > 25 µM | > 25 µM | – | > 25 µM | > 25 µM | > 25 µM | 7.69 µM | – | – | – | > 25 µM | – | – | – | – | – | – | 1.08 µM | –
6 | COC(=O)C(=O)C(C#N)c1cccc(Cl)c1 (stereo not drawn) | > 100 µM | > 100 µM | > 100 µM | > 100 µM | > 100 µM | > 100 µM | > 100 µM | > 100 µM | – | – | – | – | – | – | – | – | > 100 µM | – | – | –
7 | O=C[C@]12CC=C3OC4OC5(CCCCC5)OC4[C@H]3[C@H]1C(=O)C=CC2=O (stereo partly drawn) | 34.4 µM | 64.6 µM | > 100 µM | > 100 µM | 43.4 µM | 58.5 µM | 35.5 µM | 21.5 µM | – | – | – | – | – | – | – | – | – | – | – | –
8 | Cn1nc(-c2ccccc2)c2c(/C=C/c3ccc(Cl)cc3)onc2c1=O | – | > 100 µM | – | – | > 100 µM | > 100 µM | > 100 µM | 66 µM | – | – | – | – | – | – | – | – | 95.4 µM | – | – | –
9 | Cc1cc2nc3c(=O)[nH]c(=O)nc-3n(CC(O)C(O)C(O)CO)c2cc1N (stereo not drawn) | – | – | – | > 100 µM | > 100 µM | > 100 µM | > 100 µM | > 100 µM | – | – | – | – | – | – | – | – | > 100 µM | – | – | –
10 | CC12CCCC(C#N)(C1)OC2=O (stereo not drawn) | > 100 µM | > 100 µM | > 100 µM | > 100 µM | – | > 100 µM | > 100 µM | > 100 µM | – | – | – | – | – | – | – | – | – | – | – | –
11 | COC1=CC(c2ccc[nH]2)=N/C1=C\c1[nH]c(C)c(C(=O)Oc2ccccc2)c1C | – | 1.6 µM | 1.99 µM | 1.96 µM | – | 1.17 µM | 0.269 µM | 1.64 µM | 0.148 µM | 0.389 µM | 0.185 µM | 1.46 µM | 0.438 µM | – | 0.23 µM | 0.0197 µM | 0.0472 µM | 0.0929 µM | 0.313 µM | –
12 | CN(C)CCCOc1ccc(/C=C2/CCC/C(=C/c3ccc(OCCCN(C)C)cc3)C2=O)cc1 | 3.32 µM | 2.13 µM | 0.644 µM | – | 2.5 µM | 4.13 µM | 3.92 µM | 2.59 µM | – | – | – | – | – | – | – | – | 3.29 µM | – | – | –
13 | O=C1C(Cl)=C(Cl)C(=O)N1c1ccccc1Cl | > 88 µM | > 100 µM | > 100 µM | > 100 µM | > 88.4 µM | > 100 µM | > 100 µM | > 100 µM | – | – | – | – | – | – | – | – | > 100 µM | – | – | –
14 | N#CC(C(=O)/C(=N/NC(=O)c1ccccc1O)C(C#N)c1ccc(Br)cc1)c1ccc(Br)cc1 (stereo not drawn) | 24.6 µM | 23.7 µM | 29.1 µM | 19.1 µM | 25.5 µM | 26.7 µM | 21.5 µM | 27 µM | – | – | – | – | – | – | – | – | 23 µM | – | – | –
15 | N#CCCN(C1=NN(C(=O)CC(=O)Nc2ccc(Cl)cc2)C(c2ccccc2)C1)c1ccc(Cl)cc1 (stereo not drawn) | > 100 µM | > 100 µM | > 100 µM | > 100 µM | > 100 µM | > 100 µM | > 100 µM | > 100 µM | – | – | – | – | – | – | – | – | > 100 µM | – | – | –
16 | CC[O-].CC[O-].COc1ccc(C(=O)[CH-]C(C)=O)cc1OC.COc1ccc(C(=O)[CH-]C(C)=O)cc1OC.[Ti+4] | 86.6 µM | – | > 100 µM | > 100 µM | > 100 µM | > 100 µM | > 100 µM | > 100 µM | – | 53.8 µM | – | – | > 100 µM | 90.1 µM | 35.9 µM | 80.3 µM | > 100 µM | > 100 µM | 48 µM | 35.1 µM
17 | Cc1ccccc1C=NC12CC3CC(CC(C3)C1)C2 | > 100 µM | > 100 µM | > 100 µM | > 100 µM | > 100 µM | > 100 µM | > 100 µM | > 100 µM | – | – | – | – | – | – | – | – | > 100 µM | – | – | –
18 | O=C1Nc2ccc(O)cc2/C1=C\c1ccncc1 | – | 23.1 µM | 57 µM | – | 39 µM | 27.9 µM | 38.1 µM | 39 µM | 10.3 µM | 27.2 µM | 23.7 µM | 60.1 µM | – | 11 µM | 11.7 µM | 12 µM | 25.6 µM | 15.5 µM | 18.5 µM | –
19 | CCC[CH2][Sn]1([CH2]CCC)[O]C(=O)CN=C(C)c2ccccc2[O]1 | 2.3 µM | 2.3 µM | 3.24 µM | – | 2.46 µM | 2.13 µM | > 100 µM | 2.58 µM | 1.1 µM | 1.81 µM | – | – | – | 1.15 µM | 0.881 µM | 0.533 µM | 1.84 µM | 2.55 µM | 1.29 µM | 1.04 µM
20 | C/C=C(\C)c1cc(=O)c2c(C)cc3c(c2o1)C(OC)(OC(C)=O)c1c(O)c(C2CC(C)(N(C)C)C(OC(C)=O)C(C)O2)cc(C2CC(N(C)C)C(OC(C)=O)C(C)O2)c1C3=O (stereo not drawn) | 2.37 µM | > 20.4 µM | 9.75 µM | 5.03 µM | 6.9 µM | 1.52 µM | > 100 µM | > 21.4 µM | – | – | – | > 25.7 µM | – | – | – | – | – | – | – | –
